Among the data in patent US5252592A, “Tetrazoleacetic acid derivatives having aldose reductase inhibitory activity” (Wakamoto Pharmaceutical Co., Ltd., priority 1991, dated 1993) are IC50 values, retold here.

The target in the assay is T1, aldose reductase (Rattus norvegicus, UniProt P07943).
T1 construct: their crystalline lenses were immediately removed and stored at -80° C; The lenses were homogenized; from tissue; host or cells: crystalline lens of six-week-old male SD rats (30,000 rpm supernatant, dialysed)
In words: Test for Examining Aldose Reductase Inhibitory Effect. Particulars: rat lens aldose reductase; DL-glyceraldehyde 10 mM, NADPH 0.15 mM, pH 5.2, 30° C., 5 minutes; least-square regression of log dose-response curve. Type of assay: biochemical, male SD rats (crystalline lenses). The protocol: Six-weeks-old male SD rats were anesthetized with ether and killed. Then their crystalline lenses were immediately removed and stored at -80° C. […] The resulting supernatant was dialyzed overnight against 0.05M sodium chloride solution to obtain an aldose reductase solution. All operations were conducted at 4° C. and the enzyme solution was stored at -80° C.
More specifically, 0.1 ml of DL-glyceraldehyde (final concentration: 10 mM) was added to 0.9 ml of 100 mM sodium potassium phosphate buffer (pH 5.2) which contained lithium sulfate (final concentration: 400 mM), reduced nicotinamide adenine dinucleotide phosphate (final concentration: 0.15 mM), the enzyme solution, and the compound to be evaluated (final concentration: 10^-6 M, 10^-7 M or 10^-8 M), and then the reaction was conducted at 30° C. for 5 minutes. During the reaction, the change in the absorbance at 340 nm with time was monitored.
The maximum reducing rate of the absorbance […] during the reaction was determined. By subtracting, from this value, the maximum reducing rate (U0) at 340 nm of the reaction solution before the addition of the substrate (DL-glyceraldehyde), the reaction rate (V=U-U0) was calculated as a true reaction rate in the presence of the compound to be tested.
The same procedure was repeated except for the absence of the compound to be tested. A true reaction rate (V0) in case the enzyme was not inhibited was calculated (V0 =U'-U0 '). The aldose reductase inhibitory activity of the test compounds was determined according to the following formula:
Rate of Inhibition (%)=(V0 -V)/V0 ×100
The concentration of inhibitor giving 50% inhibitation of enyzme activity […] was estimated from the least-square regression line of the log dose-response curve.

On to `O=C(O)Cn1nnnc1-c1ccc2ccccc2c1` [Example 3 - 1], for which the IC50 was 0.05 µM. As for `O=C(O)Cn1nnnc1-c1cccc2ccccc12` [Example 3 - 2, [5-(1-naphthyl)tetrazol-1-yl]acetic acid], the figure is 0.025 µM; as for `COc1ccc2cc(-c3nnnn3CC(=O)O)ccc2c1` [Example 3 - 3], 0.019 µM; as for `COc1ccc2c(-c3nnnn3CC(=O)O)cccc2c1C(F)(F)F` [Example 3 - 4, [5-[1-(6-methoxy-5-trifluoromethyl)naphthyl]tetrazol-1-yl]acetic acid], 0.13 µM.
